This is an account of results in US20240174603A1 (Rappta Therapeutics Oy, priority 2021, published 2024).

Usually GI50 stands for the concentration giving 50% growth inhibition.

The test concerns LNCaP cells. Briefly: LNCaP cell viability assay (MTS). The test is classed as cell-based. Conditions: Homo sapiens, LNCaP, 48 h, LNCaP cell line. The gist of the method:
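LNCaP cells (5000/well) treated 24 h after plating with compound at 1–80 µM for 48 h. Relative cell number read by MTS; GI50 from four-parameter variable-slope log(inhibitor) fit with bottom constrained to zero.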

The molecule `O=S(=O)(NCC1(c2ccc(Cl)c(Cl)c2)CC1)c1ccc(Oc2ccc(C(F)(F)F)cc2)cc1` [Compound 231, N-((1-(3,4-dichlorophenyl)cyclopropyl)methyl)-4-(4-(trifluoromethyl)phenoxy)benzenesulfonamide] yielded a GI50 of 47.7 µM.

As to `O=[N+]([O-])c1cc(S(=O)(=O)NCC2(c3ccc(Cl)c(Cl)c3)CC2)ccc1OC(F)(F)F` [Compound 232, N-((1-(3,4-dichlorophenyl)cyclopropyl)methyl)-3-nitro-4-(trifluoromethoxy)benzenesulfonamide], the GI50 amounted to 31.1 µM.

Molecule `CN1CCN(CC(NS(=O)(=O)c2ccc(Oc3ccc(C(F)(F)F)cc3)cc2)c2ccc(Cl)c(Cl)c2)CC1` (centres unmarked) [Compound 233, N-(1-(3,4-dichlorophenyl)-2-(4-methylpiperazin-1-yl)ethyl)-4-(4-(trifluoromethyl)phenoxy)benzenesulfonamide] came in with a GI50 of 6.19 µM. This GI50 lies about 5-fold lower than the previous one.

`CN1CCN(CC(NS(=O)(=O)c2ccc(Oc3ccccc3)cc2)c2ccc(Cl)cc2)CC1` (centres unmarked) [Compound 234, N-(1-(4-chlorophenyl)-2-(4-methylpiperazin-1-yl)ethyl)-4-phenoxybenzenesulfonamide] yielded a GI50 of 12.1 µM.

For the molecule `CN1CCN(CC(NS(=O)(=O)c2ccc(Oc3ccc(C(F)(F)F)cc3)cc2)c2ccc(Cl)cc2)CC1` (centres unmarked) [Compound 235, N-(1-(4-chlorophenyl)-2-(4-methylpiperazin-1-yl)ethyl)-4-(4-(trifluoromethyl)phenoxy)benzenesulfonamide], the GI50 was found to be 11.3 µM.

For `CN1CCN(CC(NS(=O)(=O)c2ccc(Oc3ccccc3)cc2)c2ccc(Cl)c(Cl)c2)CC1` (centres unmarked) [Compound 236, N-(1-(3,4-dichlorophenyl)-2-(4-methylpiperazin-1-yl)ethyl)-4-phenoxybenzenesulfonamide], the GI50 is 12.3 µM.

`O=S(=O)(NC(CN1CCNCC1)c1ccc(Cl)c(Cl)c1)c1ccc(OC(F)(F)F)cc1` (centres unmarked) [Compound 237, N-(1-(3,4-dichlorophenyl)-2-(piperazin-1-yl)ethyl)-4-(trifluoromethoxy)benzenesulfonamide]: the GI50 stood at 6.84 µM.

In turn, `CN(C)CC(NS(=O)(=O)c1ccc(Oc2ccccc2C(F)(F)F)cc1)c1ccc(Cl)c(Cl)c1` (centres unmarked) [Compound 238, N-(1-(3,4-dichlorophenyl)-2-(dimethylamino)ethyl)-4-(2-(trifluoromethyl)phenoxy)benzenesulfonamide] gave a GI50 of 21.9 µM.

For the molecule `CN(C)CC(NS(=O)(=O)c1ccc(C2CCCCO2)cc1)c1ccc(Cl)c(Cl)c1` (centres unmarked) [Compound 239, N-(1-(3,4-dichlorophenyl)-2-(dimethylamino)ethyl)-4-(tetrahydro-2H-pyran-2-yl)benzenesulfonamide], the GI50 was 28.2 µM. This GI50 and that of the molecule before are within 1.5-fold of each other.

Turning to `CN(C)CC(NS(=O)(=O)c1ccc(OC(F)(F)F)c(C#N)c1)c1ccc(Cl)c(Cl)c1` (centres unmarked) [Compound 240, 3-cyano-N-(1-(3,4-dichlorophenyl)-2-(dimethylamino)ethyl)-4-(trifluoromethoxy)benzenesulfonamide], the GI50 was found to be 24.6 µM. The GI50 values of the last two molecules are within 1.5-fold of each other.

Molecule `CCCOC1CCN(CC(NS(=O)(=O)c2ccc(OC(F)(F)F)cc2)c2ccc(Cl)c(Cl)c2)CC1` (centres unmarked) [Compound 241, N-(1-(3,4-dichlorophenyl)-2-(4-propoxypiperidin-1-yl)ethyl)-4-(trifluoromethoxy)benzenesulfonamide] returned a GI50 of 31.9 µM. The GI50 values of the last two molecules are within 1.5-fold of each other.

`CNCC(NS(=O)(=O)c1ccc(OC(F)(F)F)cc1)c1ccc(Cl)c(Cl)c1` (centres unmarked) [Compound 242, N-(1-(3,4-dichlorophenyl)-2-(methylamino)ethyl)-4-(trifluoromethoxy)benzenesulfonamide] displayed a GI50 of 24.1 µM.

`O=S(=O)(NCC1(c2ccc(Cl)c(Cl)c2)CCCC1)c1ccc(OC(F)(F)F)cc1` [Compound 243, N-((1-(3,4-dichlorophenyl)cyclopentyl)methyl)-4-(trifluoromethoxy)benzenesulfonamide] yielded a GI50 of 51.7 µM.

Take `O=S(=O)(NCC1(c2ccc(Cl)cc2)CCCC1)c1ccc(OC(F)(F)F)cc1` [Compound 244, N-((1-(4-chlorophenyl)cyclopentyl)methyl)-4-(trifluoromethoxy)benzenesulfonamide]: the GI50 was 56.1 µM. This GI50 and that of the molecule before are within 1.5-fold of each other.
